Measurements reported in patent US20240390338A1, “METHODS FOR TREATING NEUROGENERATIVE DISEASES” (PTC THERAPEUTICS, INC., priority 2021, published 2024).

What follows are compounds tested on MAPT 3R mRNA (assay: RT-qPCR Assay to Quantify MAPT 3R mRNA in Cells). Conditions: cells incubated with compound 24 h; 7-point concentration curve; MAPT minigene 3R RT-qPCR with GAPDH assay; EC2X interpolated from dose response curve.
Format: cell-based
Design: key to EC2X: An EC2X value ≥3000 nM is indicated by “inactive.”; An EC2X value between >1500 nM and ≤3000 nM is indicated by one star (*); An EC2X value between >1000 nM and ≤1500 nM is indicated by two stars (**); An EC2X value between >500 nM and ≤1000 nM is indicated by three stars (***); An EC2X value between >50 nM and ≤500 nM is indicated by four stars (****); An EC2X value ≤50 nM is indicated by five stars (*****)
Experimental: RT-qPCR Assay to Quantify MAPT 3R mRNA in Cells
Test compounds were serially diluted 3.16-fold in 100% DMSO to generate a 7-point concentration curve. Aliquots of 0.5 μL of diluted compounds were transferred to a 96-well flat bottom plate by a liquid handler. An aliquot of 0.5 μL DMSO was also transferred to separate wells and used as controls. Duplicate samples were set up for each compound concentration and for the DMSO control.
Cells were thawed and incubated in cell culture media (DMEM, 10% FBS, and 1% antibiotic cocktail) for 72 h. Cells were trypsinized, counted, and re-suspended to a concentration of 200,000 cells/mL in cell culture media. A 100 μL aliquot of the cell suspensions were plated at 20,000 cells per well in the compound containing 96 well microtiter plate and incubated for in a cell culture incubator (37° C., 5% CO2, 100% relative humidity).
After 24 h, media was aspirated from the cells and 20 μL of the RCL2 lysis buffer (10 mM Tris-HCL pH 7.4, 150 mM NaCl, 0.33% IGEPAL® CA-630) was added to each well and incubated at RT for 1 min. Chilled nuclease free water (140 μL per well) was added and the plates were immediately transferred on ice. After 1 min on ice, plates were frozen at −80° C. overnight.
Preparation of RT-qPCR Reaction Mixture:
An aliquot of 4 μL/well of the cell lysates was transferred using the liquid handler to the Armadillo 384-Well PCR plate containing 6 μL/well of the RT-qPCR reaction mixture that was prepared as detailed above. The plates were then sealed with MicroAmp™ Optical Adhesive Film followed by spinning down for 1 min and placed in the CFX384 thermocycler (BioRad).
The RT-qPCR was carried out at the following temperatures for the indicated time: • Step 1: 48° C. (30 min) • Step 2: 95° C. (10 min) • Step 3: 95° C. (15 sec) • Step 4: 60° C. (1 min); then, repeated Steps 3 and 4 for a total of 40 cycles.
The percent exon 4 skipping was calculated for each dose of compound treatment using Equations 1 and 2.
Data were fit to a dose response curve and the EC2X was interpolated using XLfit® statistical and curve fitting package.
An EC2X value between >1000 nM and ≤1500 nM is indicated by two stars (**). An EC2X value between >500 nM and ≤1000 nM is indicated by three stars (***). An EC2X value between >50 nM and ≤500 nM is indicated by four stars (****). An EC2X value ≤50 nM is indicated by five stars (*****).
`C[C@H](N)Cc1sc2c(NCc3ccco3)cc(Cl)nc2c1Cl` [Cpd 36, 2-[(2S)-2-aminopropyl]-3,5-dichloro-N-[(furan-2-yl)methyl]thieno[3,2-b]pyridin-7-amine] was tested, and the EC (2-fold increase) was at most 0.05 µM.
`N[C@H](Cc1sc2c(NCc3cccs3)cc(Cl)nc2c1Br)CC(F)F` [Cpd 107, 2-[(2S)-2-amino-4,4-difluorobutyl]-3-bromo-5-chloro-N-[(thiophen-2-yl)methyl]thieno[3,2-b]pyridin-7-amine] was tested, and the EC (2-fold increase) was 0.05 to 0.5 µM.
`N[C@@H](CCF)Cc1sc2c(NCc3ccco3)cc(Cl)nc2c1Br` [Cpd 97, 2-[(2S)-2-amino-4-fluorobutyl]-3-bromo-5-chloro-N-[(furan-2-yl)methyl]thieno[3,2-b]pyridin-7-amine] gave an EC (2-fold increase) of at most 0.05 µM.
`Cc1c(C[C@H](C)N)sc2c(NCc3ccccc3F)cc(Cl)nc12` [Cpd 29, 2-[(2S)-2-aminopropyl]-5-chloro-N-[(2-fluorophenyl)methyl]-3-methylthieno[3,2-b]pyridin-7-amine] gave an EC (2-fold increase) of at most 0.05 µM.
`CSC[C@H](N)Cc1sc2c(NCc3ccco3)cc(Cl)nc2c1Br` [Cpd 118, 2-[(2R)-2-amino-3-(methylsulfanyl)propyl]-3-bromo-5-chloro-N-[(furan-2-yl)methyl]thieno[3,2-b]pyridin-7-amine] was tested, and the EC (2-fold increase) was at most 0.05 µM.
Compound `N[C@@H](CCF)Cc1sc2c(NCc3ccco3)cc(Cl)nc2c1Cl` [Cpd 93, 2-[(2S)-2-amino-4-fluorobutyl]-3,5-dichloro-N-[(furan-2-yl)methyl]thieno[3,2-b]pyridin-7-amine] has an EC (2-fold increase) of 0.05 to 0.5 µM.
With `Cc1c(C[C@@H](N)C(=O)N(C)C)sc2c(NCc3ccco3)cc(Cl)nc12` [Cpd 116, 3-(5-chloro-7-{[(furan-2-yl)methyl]amino}-3-methylthieno[3,2-b]pyridin-2-yl)-N,N-dimethyl-D-alaninamide] the EC (2-fold increase) was 0.05 to 0.5 µM.
In the case of `C[C@H](N)C(F)c1sc2c(NCc3ccco3)cc(Cl)nc2c1Br` (stereo partly drawn) [Cpd 154, 2-[(2S)-2-amino-1-fluoropropyl]-3-bromo-5-chloro-N-[(furan-2-yl)methyl]thieno[3,2-b]pyridin-7-amine], the EC (2-fold increase) is reported as at most 0.05 µM.
`N#CC[C@H](N)Cc1sc2c(NCc3ccco3)cc(Cl)nc2c1Br` [Cpd 103, (3S)-3-amino-4-(3-bromo-5-chloro-7-{[(furan-2-yl)methyl]amino}thieno[3,2-b]pyridin-2-yl)butanenitrile] showed an EC (2-fold increase) of 0.05 to 0.5 µM.
Work on `Cc1c(C[C@H](C)N)sc2c(NCc3nccs3)cc(Cl)nc12` [Cpd 57, 2-[(2S)-2-aminopropyl]-5-chloro-3-methyl-N-[(1,3-thiazol-2-yl)methyl]thieno[3,2-b]pyridin-7-amine] yielded an EC (2-fold increase) of at most 0.05 µM.
Work on `CC[C@H](N)Cc1sc2c(NCc3cccs3)cc(Cl)nc2c1Br` [Cpd 73, 2-[(2S)-2-aminobutyl]-3-bromo-5-chloro-N-[(thiophen-2-yl)methyl]thieno[3,2-b]pyridin-7-amine] yielded an EC (2-fold increase) of at most 0.05 µM.
Work on `C[C@H](N)Cc1sc2c(NCc3ccco3)cc(Cl)nc2c1C1CC1` [Cpd 51, 2-[(2S)-2-aminopropyl]-5-chloro-3-cyclopropyl-N-[(furan-2-yl)methyl]thieno[3,2-b]pyridin-7-amine] yielded an EC (2-fold increase) of at most 0.05 µM.
Work on `Cc1c(C[C@H](C)N)sc2c(NCc3cccs3)cc(C#N)nc12` [Cpd 54, 2-[(2S)-2-aminopropyl]-3-methyl-7-{[(thiophen-2-yl)methyl]amino}thieno[3,2-b]pyridine-5-carbonitrile] yielded an EC (2-fold increase) of 0.05 to 0.5 µM.
In the case of `C[C@H](N)C(F)(F)c1sc2c(NCc3cccs3)cc(Cl)nc2c1Cl` [Cpd 132, 2-[(2S)-2-amino-1,1-difluoropropyl]-3,5-dichloro-N-[(thiophen-2-yl)methyl]thieno[3,2-b]pyridin-7-amine], the EC (2-fold increase) is reported as 0.05 to 0.5 µM.
`Cc1c(C[C@@H](N)[C@H](C)F)sc2c(NCc3nccs3)cc(Cl)nc12` [Cpd 128, 2-[(2R,3S)-2-amino-3-fluorobutyl]-5-chloro-3-methyl-N-[(1,3-thiazol-2-yl)methyl]thieno[3,2-b]pyridin-7-amine] was tested, and the EC (2-fold increase) was at most 0.05 µM.
`Cc1c(C[C@@H](N)C(=O)O)sc2c(NCc3ccco3)cc(Cl)nc12` [Cpd 115, 3-(5-chloro-7-{[(furan-2-yl)methyl]amino}-3-methylthieno[3,2-b]pyridin-2-yl)-D-alanine] gave an EC (2-fold increase) of at most 0.05 µM.
`CC[C@H](N)Cc1sc2c(NCc3cccs3)cc(Cl)nc2c1Cl` [Cpd 83, 2-[(2S)-2-aminobutyl]-3,5-dichloro-N-[(thiophen-2-yl)methyl]thieno[3,2-b]pyridin-7-amine] showed an EC (2-fold increase) of at most 0.05 µM.
With `Cc1c([C@@H](C)[C@H](C)N)sc2c(NCc3ccco3)cc(Cl)nc12` [Cpd 151, 2-[(2S,3S)-3-aminobutan-2-yl]-5-chloro-N-[(furan-2-yl)methyl]-3-methylthieno[3,2-b]pyridin-7-amine] the EC2X was “inactive”.
For `N[C@H](CF)Cc1sc2c(NCc3cccs3)cc(Cl)nc2c1Br` [Cpd 63, 2-[(2S)-2-amino-3-fluoropropyl]-3-bromo-5-chloro-N-[(thiophen-2-yl)methyl]thieno[3,2-b]pyridin-7-amine], the EC (2-fold increase) was 1 to 1.5 µM.
`CN[C@@H](C)Cc1sc2c(NCc3ccco3)cc(Cl)nc2c1C` [Cpd 42, 5-chloro-N-[(furan-2-yl)methyl]-3-methyl-2-[(2S)-2-(methylamino)propyl]thieno[3,2-b]pyridin-7-amine] showed an EC (2-fold increase) of 0.5 to 1 µM.
`Cc1c(C[C@@H](N)C(=O)Nc2ccncc2)sc2c(NCc3ccco3)cc(Cl)nc12` [Cpd 140, 3-(5-chloro-7-{[(furan-2-yl)methyl]amino}-3-methylthieno[3,2-b]pyridin-2-yl)-N-pyridin-4-yl-D-alaninamide] gave an EC (2-fold increase) of 0.05 to 0.5 µM.
In the case of `COC[C@H](N)Cc1sc2c(NCc3ccco3)cc(Cl)nc2c1Cl` [Cpd 40, 2-[(2R)-2-amino-3-methoxypropyl]-3,5-dichloro-N-[(furan-2-yl)methyl]thieno[3,2-b]pyridin-7-amine], the EC (2-fold increase) is reported as at most 0.05 µM.
Compound `N[C@@H](CF)Cc1sc2c(NCc3ccco3)cc(Cl)nc2c1Cl` [Cpd 94, 2-[(2R)-2-amino-3-fluoropropyl]-3,5-dichloro-N-[(furan-2-yl)methyl]thieno[3,2-b]pyridin-7-amine] has an EC (2-fold increase) of at most 0.05 µM.
`CSC[C@H](N)Cc1sc2c(NCc3ccco3)cc(Cl)nc2c1Cl` [Cpd 114, 2-[(2R)-2-amino-3-(methylsulfanyl)propyl]-3,5-dichloro-N-[(furan-2-yl)methyl]thieno[3,2-b]pyridin-7-amine] gave an EC (2-fold increase) of at most 0.05 µM.
With `C[C@@H](O)[C@H](N)Cc1sc2c(NCc3ccco3)cc(Cl)nc2c1Br` [Cpd 165, (2R,3R)-3-amino-4-(3-bromo-5-chloro-7-{[(furan-2-yl)methyl]amino}thieno[3,2-b]pyridin-2-yl)butan-2-ol] the EC (2-fold increase) was at most 0.05 µM.
`N[C@@H](CO)Cc1sc2c(NCc3ccco3)cc(Cl)nc2c1Br` [Cpd 41, (2R)-2-amino-3-(3-bromo-5-chloro-7-{[(furan-2-yl)methyl]amino}thieno[3,2-b]pyridin-2-yl)propan-1-ol] gave an EC (2-fold increase) of 0.5 to 1 µM.
With `Cc1c(C[C@@H](N)[C@H](C)F)sc2c(NCc3cccs3)cc(Cl)nc12` [Cpd 126, 2-[(2R,3S)-2-amino-3-fluorobutyl]-5-chloro-3-methyl-N-[(thiophen-2-yl)methyl]thieno[3,2-b]pyridin-7-amine] the EC (2-fold increase) was at most 0.05 µM.
With `N[C@H](Cc1sc2c(NCc3ccco3)cc(Cl)nc2c1Cl)C(=O)Nc1ccccc1` [Cpd 122, 3-(3,5-dichloro-7-{[(furan-2-yl)methyl]amino}thieno[3,2-b]pyridin-2-yl)-N-phenyl-D-alaninamide] the EC (2-fold increase) was 0.05 to 0.5 µM.
